Results taken from US11874603B2, “Photoresist composition comprising amide compound and pattern formation methods using the same” (Rohm And Haas Electronic Materials Korea Ltd., priority 2021, dated 2024).

Experiment: lipophilicity (log P) of the quencher
Assay type: physicochemical
Details: organic (oil) phase / aqueous phase partition
Description: Lipophilicity, most commonly referred to as the Log P, represents the ratio at equilibrium of the concentration of a compound between two phases, an oil and a […] phase. The Log P value is a constant defined in the following manner: Log P=log 10 (Partition Coefficient) Partition Coefficient, P=[organic]/[aqueous] where the square bracket parenthesis “[ ]” indicates the concentration of solute in the organic and aqueous partition.

| logP | SMILES |
| --- | --- |
| 6.69 | CCCCCCCCN(CCCCCCCC)C(C)=O [Quencher-I] |
| 5.6 | CCCCCCCCCCCC(=O)N(CC)CC [Quencher-H] |
| 10.8 | CCCCCCCCN(CCCCCCCC)CCCCCCCC [Quencher-A] |
| 10.2 | CCCCCCCCN(CCCCCCCC)C(=O)CCCCCCC [Quencher-B] |
